The values that follow come from PMC11472320, “Computationally Driven Discovery of a BCR-ABL1 Kinase Inhibitor with Activity in Multidrug-Resistant Chronic Myeloid Leukemia” (Journal of Medicinal Chemistry, 2024).

Several values for one entry are separate records, joined by “and”; a condition that tells them apart may be missing. Equal values may be shown once. Read-outs that look alike come from different tables or passages of the source.

For data set [1], the system named is MDCKII-MDR1 cells. The note with it: cited from earlier work.
For data set [2] the following is noted: cited from earlier work.
For data set [3] the following is noted: cited from earlier work. The source holds these as a separate data set.
The nature of data set [4]: Abraham ANMR value by NMR (CDCl3 vs DMSO-d6). The data set is classed as physicochemical. The source says: Previously, intramolecular N–H–F hydrogen bonds (HBs) have been proposed as a strategy to reduce P-gp-mediated efflux and improve passive permeability, as highlighted in the discovery of the brain-penetrant EGFR inhibitor, AZD-3759 (Figure 2A).[37]−[40] […] Consistent with this work, we conducted an NMR study of the EGFR inhibitor 7a and the BCR-ABL1 inhibitor 8a in deuterated chloroform (CDCl3) and in the more polar, HB-accepting dimethyl sulfoxide (DMSO-d6). […] This finding is further supported by the lack of ^1JNH-F coupling (≤1 Hz) in 7a and 8a, as contrasted with bona fide intramolecular HBs to fluorine, which typically have ^1JNH-F coupling constants >10 Hz as exemplified by 9 with its ^1JNH-F of 19.1 Hz.[41],[43]

Data set [5] concerns MDCKII-MDR1 cells. Kind of data set: MDCKII-MDR1 permeability.
Another data set concerns Caco-2 cells. Kind of data set: Caco-2 permeability.
A further data set has as its target cSRC wt (Homo sapiens, UniProt P12931). Description: KinaseProfiler enzymatic radiometric kinase assay.
The nature of data set [6]: in vitro. The note with it: dog, MDCK-MDR1.
The test system of the next data set is MDR1 (P-gp). Description: in vitro. The note with it: dog, MDCK-MDR1.
Another data set concerns MDR1. Kind of data set: in vitro. The note with it: dog, MDCK-MDR1.
Data set [7] in a line: Plasma protein binding by equilibrium dialysis. It is filed as in vitro ADME. The note with it: human plasma.
Another data set in a line: Lipophilicity logD7.4. The data set is classed as physicochemical. The note with it: pH 7.4.
A further data set in a line: Aqueous solubility. The data set is classed as physicochemical. The note with it: pH 7.4.
The next data set concerns the target mutant BCR-ABL1 kinases. Description: Biochemical kinase inhibition, summary statements. Further details: species or system human. The note with it: read-out: IC50 against mutant BCR-ABL1 kinases.
A further data set has as its target BCR-ABL1 wt (Homo sapiens, UniProt P00519). Description: KinaseProfiler enzymatic radiometric kinase assay. The note with it: read-out: Kinase IC50 BCR-ABL1 wt; [ATP] = 10 µM, n = 2.
A further data set relates to Ph+ CML. Description: Activity in Ph+ CML (Figure 2B annotation). The data set is classed as cell-based. The note with it: annotation in Figure 2B.
Data set [8] is described as follows: Metabolic stability in hepatocytes. It is filed as in vitro ADME, human. The text has this: Metabolic stability in hepatocytes
Table S4. Hepatocyte details used in the hepatocyte stability assay.
Human Hepatocytes, Mixed-Gender BiolVT (Cat No. X008001)
Mouse Hepatocytes, Male-Gender BiolVT (Cat No. M005052)

The nature of data set [9]: in vitro. The note with it: human, Caco-2.
The next data set has as its target T1, PRKCE (Homo sapiens, UniProt Q02156).
T1 construct: purchased Eurofins DiscoverX (KINOMEscan)
Kind of data set: KINOMEScan. The data set is classed as binding. The note with it: read-out: Percent Control.

The target in another data set is T2, PRKD3 (Homo sapiens, UniProt O94806).
T2 construct: purchased Eurofins DiscoverX (KINOMEscan)
Description: KINOMEScan. The data set is classed as binding. The note with it: read-out: Percent Control.

The target in another data set is T3, PRP4 (Homo sapiens, UniProt Q13523).
T3 construct: purchased Eurofins DiscoverX
Description: KINOMEScan. It is filed as binding. The note with it: read-out: Percent Control.

For the next data set, the target named is T4, PRKCH (Homo sapiens, UniProt P24723).
T4 construct: purchased Eurofins DiscoverX (KINOMEscan)
Kind of data set: KINOMEScan. The note with it: read-out: Percent Control. The data set is classed as binding.

The target of another data set is T5, PRKCD (Homo sapiens, UniProt Q05655).
T5 construct: purchased Eurofins DiscoverX (KINOMEscan)
Kind of data set: KINOMEScan. The data set is classed as binding. The note with it: read-out: Percent Control.

For a further data set, the target named is T6, PKNB(M.tuberculosis) (Mycobacterium tuberculosis, UniProt P9WI81).
T6 construct: purchased Eurofins DiscoverX (KINOMEscan)
Description: KINOMEScan. The note with it: read-out: Percent Control. The data set is classed as binding.

A further data set deals with T7, PRKCQ (Homo sapiens, UniProt Q04759).
T7 construct: purchased Eurofins DiscoverX (KINOMEscan)
Kind of data set: KINOMEScan. The data set is classed as binding. The note with it: read-out: Percent Control.

For a further data set, the target named is T8, PFCDPK1(P.falciparum) (Plasmodium falciparum, UniProt P62344).
T8 construct: purchased Eurofins DiscoverX (KINOMEscan)
Kind of data set: KINOMEScan. The note with it: read-out: Percent Control. It is filed as binding.

Another data set has as its target T9, PRKCI (Homo sapiens, UniProt P41743).
T9 construct: purchased Eurofins DiscoverX (KINOMEscan)
Kind of data set: KINOMEScan. The data set is classed as binding. The note with it: read-out: Percent Control.

In the next data set the target is T10, CDC2L5 (Homo sapiens, UniProt Q14004).
T10 construct: purchased Eurofins DiscoverX (KINOMEscan)
Description: KINOMEScan. It is filed as binding. The note with it: read-out: Percent Control.

The target in another data set is T11, PFPK5(P.falciparum) (Plasmodium falciparum, UniProt P61075).
T11 construct: purchased Eurofins DiscoverX (KINOMEscan)
Kind of data set: KINOMEScan. The data set is classed as binding. The note with it: read-out: Percent Control.

The target of a further data set is T12, PRKD1 (Homo sapiens, UniProt Q15139).
T12 construct: purchased Eurofins DiscoverX (KINOMEscan)
Kind of data set: KINOMEScan. The data set is classed as binding. The note with it: read-out: Percent Control.

T12 sequence (Q15139 whole entry): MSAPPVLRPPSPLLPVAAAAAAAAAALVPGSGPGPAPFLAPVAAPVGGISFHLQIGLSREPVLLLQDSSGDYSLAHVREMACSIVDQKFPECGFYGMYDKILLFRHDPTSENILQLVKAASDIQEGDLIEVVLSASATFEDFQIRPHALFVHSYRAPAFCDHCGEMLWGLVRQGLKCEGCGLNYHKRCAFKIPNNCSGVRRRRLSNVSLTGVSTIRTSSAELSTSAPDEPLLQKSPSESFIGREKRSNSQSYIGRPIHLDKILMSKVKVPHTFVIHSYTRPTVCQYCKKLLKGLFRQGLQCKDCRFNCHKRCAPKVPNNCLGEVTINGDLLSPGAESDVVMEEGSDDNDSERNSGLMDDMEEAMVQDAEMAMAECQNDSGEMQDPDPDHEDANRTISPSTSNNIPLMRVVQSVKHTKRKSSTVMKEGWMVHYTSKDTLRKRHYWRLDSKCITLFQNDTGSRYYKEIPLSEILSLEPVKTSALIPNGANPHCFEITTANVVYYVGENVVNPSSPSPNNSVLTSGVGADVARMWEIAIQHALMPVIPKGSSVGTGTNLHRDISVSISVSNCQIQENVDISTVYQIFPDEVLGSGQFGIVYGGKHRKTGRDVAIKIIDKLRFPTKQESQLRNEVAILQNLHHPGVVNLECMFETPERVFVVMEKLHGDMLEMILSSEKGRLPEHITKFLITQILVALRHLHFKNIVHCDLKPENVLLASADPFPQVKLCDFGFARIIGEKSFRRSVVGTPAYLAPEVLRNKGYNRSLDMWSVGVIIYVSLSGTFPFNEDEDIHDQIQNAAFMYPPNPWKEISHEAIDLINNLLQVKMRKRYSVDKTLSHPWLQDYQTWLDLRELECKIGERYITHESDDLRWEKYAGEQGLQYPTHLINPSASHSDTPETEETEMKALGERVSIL
T5 sequence (Q05655 whole entry): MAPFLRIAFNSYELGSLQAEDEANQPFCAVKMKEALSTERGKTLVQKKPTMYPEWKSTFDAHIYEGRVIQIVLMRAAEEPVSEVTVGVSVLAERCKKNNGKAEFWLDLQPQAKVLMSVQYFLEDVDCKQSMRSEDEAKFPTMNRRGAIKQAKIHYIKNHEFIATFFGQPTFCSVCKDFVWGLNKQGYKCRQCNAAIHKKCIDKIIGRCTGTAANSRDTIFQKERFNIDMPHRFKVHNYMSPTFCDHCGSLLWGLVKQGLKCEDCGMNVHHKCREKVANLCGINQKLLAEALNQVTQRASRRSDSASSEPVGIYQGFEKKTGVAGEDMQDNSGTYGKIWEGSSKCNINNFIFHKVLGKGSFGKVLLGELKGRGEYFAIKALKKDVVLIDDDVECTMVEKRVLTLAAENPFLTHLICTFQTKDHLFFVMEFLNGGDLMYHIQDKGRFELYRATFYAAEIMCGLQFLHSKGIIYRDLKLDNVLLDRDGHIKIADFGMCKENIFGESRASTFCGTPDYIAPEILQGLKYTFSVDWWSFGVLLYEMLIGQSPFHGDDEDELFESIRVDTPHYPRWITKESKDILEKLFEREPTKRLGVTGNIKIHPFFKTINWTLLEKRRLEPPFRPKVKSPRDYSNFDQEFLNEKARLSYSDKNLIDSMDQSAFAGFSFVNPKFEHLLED
T9 sequence (P41743 whole entry): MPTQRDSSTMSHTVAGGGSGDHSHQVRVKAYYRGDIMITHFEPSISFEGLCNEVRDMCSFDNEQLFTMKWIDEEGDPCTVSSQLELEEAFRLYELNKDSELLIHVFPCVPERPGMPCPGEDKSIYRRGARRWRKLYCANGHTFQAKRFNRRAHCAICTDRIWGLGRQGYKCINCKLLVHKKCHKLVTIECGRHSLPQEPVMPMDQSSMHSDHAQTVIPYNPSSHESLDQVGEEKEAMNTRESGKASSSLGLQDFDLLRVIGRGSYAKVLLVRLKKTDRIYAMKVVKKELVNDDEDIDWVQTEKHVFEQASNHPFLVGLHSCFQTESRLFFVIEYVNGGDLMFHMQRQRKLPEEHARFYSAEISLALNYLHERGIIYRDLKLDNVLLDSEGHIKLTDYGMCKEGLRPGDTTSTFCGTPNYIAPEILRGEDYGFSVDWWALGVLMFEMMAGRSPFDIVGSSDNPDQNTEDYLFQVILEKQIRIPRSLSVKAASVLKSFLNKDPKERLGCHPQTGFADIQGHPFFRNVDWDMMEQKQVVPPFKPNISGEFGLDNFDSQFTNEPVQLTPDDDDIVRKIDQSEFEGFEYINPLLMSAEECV
T7 sequence (Q04759 whole entry): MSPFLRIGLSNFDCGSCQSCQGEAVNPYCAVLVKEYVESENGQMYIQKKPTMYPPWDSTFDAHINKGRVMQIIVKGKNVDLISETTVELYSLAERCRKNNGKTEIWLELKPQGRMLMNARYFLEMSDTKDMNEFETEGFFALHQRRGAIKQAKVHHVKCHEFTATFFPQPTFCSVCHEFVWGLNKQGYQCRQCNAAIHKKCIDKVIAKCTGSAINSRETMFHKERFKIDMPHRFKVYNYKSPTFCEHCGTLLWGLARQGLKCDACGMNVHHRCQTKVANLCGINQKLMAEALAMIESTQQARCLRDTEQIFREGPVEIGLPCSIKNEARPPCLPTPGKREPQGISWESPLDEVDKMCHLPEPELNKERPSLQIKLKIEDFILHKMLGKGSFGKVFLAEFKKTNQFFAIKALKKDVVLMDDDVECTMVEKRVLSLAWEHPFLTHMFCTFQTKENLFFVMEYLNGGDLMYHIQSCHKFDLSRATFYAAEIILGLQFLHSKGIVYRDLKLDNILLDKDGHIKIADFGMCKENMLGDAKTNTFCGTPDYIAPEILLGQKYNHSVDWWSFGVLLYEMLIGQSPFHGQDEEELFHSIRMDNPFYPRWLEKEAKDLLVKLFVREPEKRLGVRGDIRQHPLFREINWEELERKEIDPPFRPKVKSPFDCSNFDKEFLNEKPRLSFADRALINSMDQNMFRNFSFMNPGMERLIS
T6 sequence (P9WI81 whole entry): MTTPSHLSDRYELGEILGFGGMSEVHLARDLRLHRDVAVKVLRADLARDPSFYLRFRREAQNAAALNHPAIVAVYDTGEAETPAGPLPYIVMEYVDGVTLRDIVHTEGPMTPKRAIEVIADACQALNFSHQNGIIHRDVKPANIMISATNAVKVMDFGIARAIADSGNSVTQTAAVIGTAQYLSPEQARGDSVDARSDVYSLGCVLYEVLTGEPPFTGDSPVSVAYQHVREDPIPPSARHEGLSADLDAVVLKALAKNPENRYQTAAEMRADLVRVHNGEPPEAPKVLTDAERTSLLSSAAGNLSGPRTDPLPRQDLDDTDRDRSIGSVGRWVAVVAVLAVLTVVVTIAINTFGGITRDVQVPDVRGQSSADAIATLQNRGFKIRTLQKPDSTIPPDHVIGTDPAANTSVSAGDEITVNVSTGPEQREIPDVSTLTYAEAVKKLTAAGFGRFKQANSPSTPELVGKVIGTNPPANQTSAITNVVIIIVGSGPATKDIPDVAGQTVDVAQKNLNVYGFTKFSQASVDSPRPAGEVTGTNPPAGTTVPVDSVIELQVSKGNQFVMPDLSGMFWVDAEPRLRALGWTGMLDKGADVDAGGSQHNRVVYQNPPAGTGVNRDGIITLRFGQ
Chain of BCR-ABL1 wt (P00519 27-1130 limits assumed): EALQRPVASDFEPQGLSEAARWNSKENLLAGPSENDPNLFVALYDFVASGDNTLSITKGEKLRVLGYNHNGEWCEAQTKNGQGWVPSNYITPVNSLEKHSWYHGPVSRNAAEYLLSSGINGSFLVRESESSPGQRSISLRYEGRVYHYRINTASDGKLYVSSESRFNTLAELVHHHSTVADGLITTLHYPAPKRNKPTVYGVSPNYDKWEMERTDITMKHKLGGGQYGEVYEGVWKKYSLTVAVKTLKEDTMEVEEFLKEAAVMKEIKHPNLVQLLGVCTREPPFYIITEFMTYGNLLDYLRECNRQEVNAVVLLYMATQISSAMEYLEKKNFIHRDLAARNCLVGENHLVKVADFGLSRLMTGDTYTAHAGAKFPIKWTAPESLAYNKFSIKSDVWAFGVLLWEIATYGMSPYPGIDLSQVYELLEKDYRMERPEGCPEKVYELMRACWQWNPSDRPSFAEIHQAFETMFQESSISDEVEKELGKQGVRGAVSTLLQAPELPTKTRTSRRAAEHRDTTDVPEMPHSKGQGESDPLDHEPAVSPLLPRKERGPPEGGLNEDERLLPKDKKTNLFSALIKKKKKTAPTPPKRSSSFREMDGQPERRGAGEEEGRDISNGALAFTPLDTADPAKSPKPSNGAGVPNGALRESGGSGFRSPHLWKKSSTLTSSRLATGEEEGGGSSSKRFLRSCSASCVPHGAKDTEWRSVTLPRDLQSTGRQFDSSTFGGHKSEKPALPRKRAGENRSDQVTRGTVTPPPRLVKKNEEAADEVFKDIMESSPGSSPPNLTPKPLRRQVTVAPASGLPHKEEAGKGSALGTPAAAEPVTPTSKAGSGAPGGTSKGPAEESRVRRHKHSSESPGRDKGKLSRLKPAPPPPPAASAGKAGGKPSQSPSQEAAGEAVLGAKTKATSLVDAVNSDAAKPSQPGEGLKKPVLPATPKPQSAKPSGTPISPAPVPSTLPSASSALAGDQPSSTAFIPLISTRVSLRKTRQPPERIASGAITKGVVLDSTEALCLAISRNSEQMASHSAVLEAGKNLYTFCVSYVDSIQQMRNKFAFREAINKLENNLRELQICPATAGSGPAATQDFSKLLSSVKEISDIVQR
T11 sequence (P61075 whole entry): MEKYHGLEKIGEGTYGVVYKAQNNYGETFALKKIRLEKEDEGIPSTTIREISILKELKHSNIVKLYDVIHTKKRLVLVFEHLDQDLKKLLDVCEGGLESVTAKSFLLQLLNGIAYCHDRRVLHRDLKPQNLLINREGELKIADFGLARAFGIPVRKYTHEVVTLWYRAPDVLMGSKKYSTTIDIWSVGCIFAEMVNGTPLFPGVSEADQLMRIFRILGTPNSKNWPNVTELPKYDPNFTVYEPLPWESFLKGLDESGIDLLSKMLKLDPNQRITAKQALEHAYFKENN

Regarding `COc1cc2ncnc(Nc3cccc(Cl)c3F)c2cc1OCCON1CCN(C)CC1` [7a], the P-gp efflux status entry in the data set on MDCKII-MDR1 cells [1] is given as “Not a P-gp Substrate”. For the same compound, the Micronucleus result in data set [2] is “Negative”. In addition, the AMES entry in data set [3] is reported as “Negative”. Further, the “Abraham ANMR Value (aniline N-H)” value in data set [4] is > 0.30 and 0.31.

Regarding `COc1cc(Nc2c(C#N)cnc3cc(OCCON4CCN(C)CC4)c(OC)cc23)c(F)cc1Cl` [8a, 4-((4-Chloro-2-fluoro-5-methoxyphenyl)amino)-6-methoxy-7-(2-((4-methylpiperazin-1-yl)oxy)ethoxy)quinoline-3-carbonitrile], the P-gp efflux status result with MDCKII-MDR1 cells [5] is on record as “P-gp Substrate”. In addition, the figures for the “Recovery% (BL-AP)” value with MDCKII-MDR1 cells [5] (Table S7) and with Caco-2 cells (Table S9) were 64.87% and 72.31%, respectively. The “MDCKII-MDR1 Efflux Ratio” value in the data set with MDCKII-MDR1 cells [5] (n = 2) was determined as 27.6. The figures for the “efflux ratio” value in the data set on Caco-2 cells (Table S9), in the data set with MDR1 and in “in vitro [9]” were 6.22, 26.4 and 6.4, respectively. In the data set with Caco-2 cells (a-b), the “Caco-2 Papp (a-b)” value was determined as 1.9 ×10⁻⁶ cm/s. The “Caco-2 Papp (b-a)” value in the data set with Caco-2 cells (b-a) was determined as 12.1 ×10⁻⁶ cm/s. For the same compound, the concentration for half-maximal inhibition (IC50) is 2 nM against cSRC wt, less than 1 nM at mutant BCR-ABL1 kinases and 1 nM on BCR-ABL1 wt. Moreover, the recovery in the data set “in vitro [6]” is 79.8%; in data set [7] (both sexes), 99.9%; in “in vitro [9]”, 61.2%. Moreover, the Papp A→B with MDR1 (P-gp) turned out to be 0.7 ×10⁻⁶ cm/s; in the data set with MDR1, 0.73 ×10⁻⁶ cm/s; in the data set “in vitro [9]”, 1.94 ×10⁻⁶ cm/s. Moreover, the results for the apparent permeability from basolateral to apical (Papp B→A) in the data set with MDR1 (P-gp) and in “in vitro [9]” were 19.3 ×10⁻⁶ cm/s and 12.1 ×10⁻⁶ cm/s, respectively. Besides, in [7] (both sexes), the fraction unbound is 0.0558. In data set [7] (both sexes, 6 h), this compound gave a share remaining at 6 h of 92.7%. The “%Unbound” value in [7] stood at 5.58%. The same compound registered a log distribution coefficient (logD) in the data set “Lipophilicity logD7.4” of 3.4. In addition, the “Abraham ANMR Value (aniline N-H)” value in data set [4] was > 0.30 and 0.40. Further, the “Aq. Sol.” value in the data set “Aqueous solubility” is 43 µM. The “Activity in Ph+ CML” value in the data set with Ph+ CML is listed as “Moderate Activity”. Further, the “Remaining Percentages” value in [8] (0.5 min) was found to be 100.00%; in [8] (15 min), 69.28%; in [8] (30 min), 52.48%; in [8] (60 min) it was 29.45%; in data set [8] (90 min), 15.72%; in data set [8] (120 min) it was 9.48%. Also, the hepatocyte CLint in data set [8] (both sexes, human hepatocytes, read-out: HEPClint (H)) turned out to be 40.5 µL/min/1e6 cells. For the same compound, the “t1/2 (H)” value in data set [8] (human hepatocytes) came out at 34.2 min.

In the case of `COc1cc2c(Nc3ccc(Cl)c(OC)n3)c(C#N)cnc2cc1OCCON1CCN(C)CC1` [16a, 4-((5-Chloro-6-methoxypyridin-2-yl)amino)-6-methoxy-7-(2-((4-methylpiperazin-1-yl)oxy)ethoxy)quinoline-3-carbonitrile], the remaining binding at 1 µM at PRKCE came out at 70%; on PRKD3, 58%; on PRP4 it was 33%; at PRKCH, 84%; on PRKCD it was 42%; at PKNB(M.tuberculosis), 53%. Moreover, the remaining binding at 1 µM at PRKCQ amounted to 30%; at PFCDPK1(P.falciparum) it was 18%; on PRKCI it was 61%; at CDC2L5, 100%; on PFPK5(P.falciparum), 100%; at PRKD1, 78%.
